Measurements: ChEMBL document CHEMBL1201862, “PubChem BioAssay data set” (2004)
Where “and” joins values, the source holds several entries; their conditions need not be identical. Equal values may be shown once.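 Protocol summary: plate cells (96-well), add compound at 5 concentrations, incubate 48 h, interpolate endpoints linearly. The concentration for 50% growth inhibition is given as GI50.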 Calls of active or inactive are those of the source. No stated cut-off is given here; in the data, active = GI50 up to about 1.1 µM and inactive = higher.

How the values were obtained:
Assay in all cases: DTP human tumour cell line panel, 48 h
786-0 = test system: 786-0
DLD-1 = test system: DLD-1
HCT-15 = test system: HCT-15
K562 = test system: K562
LOX IMVI = test system: LOX IMVI
M14 = test system: M14
NCI-H23 = test system: NCI-H23
OVCAR-4 = test system: OVCAR-4
SF-295 = test system: SF-295
SK-MEL-28 = test system: SK-MEL-28
SK-MEL-5 = test system: SK-MEL-5
SN12C = test system: SN12C
SR = test system: SR
TK-10 = test system: TK-10
UO-31 = test system: UO-31
DU-145 = test system: DU-145
Hs-578T = test system: Hs-578T
MDA-MB-435 = test system: MDA-MB-435
Malme-3M = test system: Malme-3M
T47D = test system: T47D

Measured: GI50

CC1=NN(C(=O)Nc2ccccc2)C(=O)C2CCC(=O)N12 (stereo unspecified)
inactive: 786-0 > 100 µM | DLD-1 > 100 µM | K562 > 100 µM | LOX IMVI > 100 µM | M14 > 100 µM | NCI-H23 > 100 µM | OVCAR-4 > 100 µM | SF-295 > 100 µM | SK-MEL-28 > 100 µM | SK-MEL-5 > 100 µM | SN12C > 100 µM | SR > 100 µM | TK-10 > 100 µM | UO-31 > 100 µM
> 100 µM: HCT-15

CCCCCCCCCCCCCCCCCCOCC(COCCOCC[N+]1(CCCCCC(=O)[O-])CCCC1)Oc1ncccn1 (stereo unspecified)
12.8 µM: HCT-15
inactive: 786-0 7.23 µM | DLD-1 2.18 µM | DU-145 13.3 µM | Hs-578T 13.6 µM | K562 2.19 µM | LOX IMVI 2.88 µM | M14 7.41 µM | MDA-MB-435 8.79 µM | Malme-3M 16.7 µM | NCI-H23 4.88 µM | OVCAR-4 2.2 µM | SF-295 4.88 µM | SK-MEL-28 6.68 µM | SK-MEL-5 4.22 µM | SN12C 4.44 µM | SR 3.18 µM | T47D 5.13 µM | TK-10 4.06 µM | UO-31 10.1 µM

Cc1ccc(S(=O)(=O)SC/C=C\CSS(=O)(=O)c2ccc(C)cc2)cc1
inactive: 786-0 12.2 µM and 17.9 µM | DLD-1 22.1 µM and 29.1 µM | DU-145 16.4 µM | Hs-578T 67 µM | M14 13.8 µM and 17.4 µM | MDA-MB-435 5.82 µM | Malme-3M 34.7 µM and 20.2 µM | NCI-H23 16.6 µM and 12.4 µM | SF-295 19.1 µM and 37.7 µM | SK-MEL-5 27.6 µM and 29.3 µM | SN12C 18.8 µM and 9.71 µM | T47D 39.3 µM | UO-31 55.2 µM

CCC(C)(C)n1c(C)nc2c1C(=O)c1ccccc1C2=O
23.1 µM: HCT-15
inactive: 786-0 39.5 µM | DLD-1 15.6 µM | K562 13.6 µM | LOX IMVI 19.4 µM | M14 42.5 µM | Malme-3M 32.2 µM | NCI-H23 27.7 µM | OVCAR-4 37.3 µM | SF-295 38.9 µM | SK-MEL-28 46.8 µM | SK-MEL-5 15.7 µM | SN12C 31.5 µM | SR 9.33 µM | TK-10 31.8 µM | UO-31 25.7 µM

Cn1cnc([N+](=O)[O-])c1Sc1nnnn1C
inactive: 786-0 17.6 µM | DLD-1 14.5 µM | K562 16.7 µM | LOX IMVI 13.4 µM | M14 14.8 µM | Malme-3M 13.2 µM | NCI-H23 19.6 µM | OVCAR-4 16.9 µM | SF-295 > 100 µM | SK-MEL-28 14.3 µM | SK-MEL-5 17.3 µM | SN12C 16.3 µM | SR 11.4 µM | TK-10 17.5 µM | UO-31 15.3 µM

C/C(=N/O)c1ccc2c(c1)/C(=N/O)c1cc(/C(C)=N/O)ccc1-2
14.1 µM: HCT-15
inactive: 786-0 17.2 µM | DLD-1 16.1 µM | K562 17.8 µM | LOX IMVI 13 µM | M14 16.4 µM | Malme-3M 11 µM | NCI-H23 12.9 µM | OVCAR-4 16.3 µM | SF-295 15.3 µM | SK-MEL-28 17.3 µM | SK-MEL-5 14.9 µM | SN12C 16.3 µM | SR 3.45 µM | TK-10 > 10 µM | UO-31 15.1 µM

COc1ccc(NC(=O)CC/C(CC(=O)c2ccccc2Cl)=N\Nc2nnc(C)n2N)cc1
inactive: 786-0 > 100 µM | DLD-1 > 100 µM | K562 61.9 µM | LOX IMVI > 100 µM | Malme-3M > 100 µM | NCI-H23 > 100 µM | OVCAR-4 > 100 µM | SF-295 > 100 µM | SK-MEL-28 > 100 µM | SN12C > 100 µM | SR > 100 µM | TK-10 > 100 µM | UO-31 > 100 µM
> 100 µM: HCT-15

C=CCC1C(=O)CC2(C)CC(=O)C(CC=C)C12C (stereo unspecified)
inactive: 786-0 > 100 µM | DLD-1 > 100 µM | K562 > 100 µM | LOX IMVI > 100 µM | M14 > 100 µM | Malme-3M > 100 µM | NCI-H23 > 100 µM | OVCAR-4 91 µM | SF-295 > 100 µM | SK-MEL-28 > 100 µM | SK-MEL-5 > 100 µM | SN12C > 100 µM | SR > 100 µM | TK-10 > 100 µM | UO-31 > 100 µM
> 100 µM: HCT-15

COc1ccc(C(=O)C(CC2C(=O)NC(=O)NC2=O)c2ccc(OC)cc2)cc1 (stereo unspecified)
inactive: 786-0 > 100 µM | DLD-1 > 100 µM | K562 > 100 µM | LOX IMVI > 100 µM | M14 > 100 µM | Malme-3M > 100 µM | NCI-H23 > 100 µM | OVCAR-4 > 100 µM | SF-295 > 100 µM | SK-MEL-28 > 100 µM | SK-MEL-5 > 100 µM | SN12C > 100 µM | SR > 100 µM | TK-10 > 100 µM | UO-31 > 100 µM
> 100 µM: HCT-15

CCC12C=CCN(CCc3c([nH]c4ccccc34)/C=C\1)C2 (stereo unspecified)
inactive: 786-0 > 100 µM | DLD-1 > 10 µM | K562 > 100 µM | LOX IMVI > 100 µM | M14 > 100 µM | Malme-3M > 100 µM | NCI-H23 > 100 µM | OVCAR-4 > 100 µM | SF-295 > 100 µM | SK-MEL-5 > 100 µM | SN12C > 100 µM | SR > 100 µM | UO-31 > 100 µM
> 100 µM: HCT-15

O=[N+]([O-])c1cc(/C=N/NS(=O)(=O)c2ccc(F)cc2)c(O)c([N+](=O)[O-])c1
inactive: 786-0 41.3 µM | DLD-1 51.3 µM | K562 41.2 µM | LOX IMVI 39.5 µM | M14 22.9 µM | Malme-3M 63.1 µM | NCI-H23 24.9 µM | OVCAR-4 58.1 µM | SF-295 52.8 µM | SK-MEL-28 82.8 µM | SK-MEL-5 25.7 µM | SN12C 33.7 µM | SR 18.4 µM | TK-10 57.1 µM | UO-31 > 100 µM
26.5 µM: HCT-15

O=C(O)CSc1nnc(-c2ccccc2O)[nH]1
> 100 µM: HCT-15
inactive: 786-0 > 100 µM | DLD-1 > 100 µM | K562 > 100 µM | LOX IMVI > 100 µM | M14 > 100 µM | Malme-3M > 100 µM | NCI-H23 > 100 µM | OVCAR-4 > 100 µM | SF-295 > 100 µM | SK-MEL-28 > 100 µM | SK-MEL-5 > 100 µM | SN12C > 100 µM | SR > 100 µM | TK-10 > 100 µM | UO-31 > 100 µM

NC(=O)c1nc(-c2ccc(Cl)c(Cl)c2)nc2ccccc12
inactive: 786-0 3.69 µM | DLD-1 > 22.8 µM | K562 > 31.6 µM | LOX IMVI > 100 µM | M14 > 100 µM | Malme-3M 4.92 µM | NCI-H23 39.7 µM | OVCAR-4 > 100 µM | SK-MEL-5 > 49.3 µM | SN12C > 100 µM | SR > 100 µM | TK-10 22.6 µM
> 100 µM: HCT-15

C=CCc1ccc(O)c(-c2cc(C3Oc4c(-c5cc(CC=C)ccc5O)cc(O)cc4[C@@H]3CO)ccc2O)c1 (stereo partly specified)
15.8 µM: HCT-15
inactive: 786-0 33.5 µM | DLD-1 18 µM | K562 15.6 µM | LOX IMVI 16.9 µM | M14 37.5 µM | Malme-3M 50.4 µM | NCI-H23 23.7 µM | OVCAR-4 36.9 µM | SF-295 48.3 µM | SK-MEL-28 26.7 µM | SK-MEL-5 16 µM | SN12C 32.9 µM | SR 14.4 µM | TK-10 66.1 µM | UO-31 40.2 µM

CCCCCCCCCCCCCCCC(=O)NCC(COP(=O)([O-])OCC[N+](C)(C)C)OCC (stereo unspecified)
6.4 µM: HCT-15
inactive: 786-0 2.54 µM | DLD-1 5.19 µM | LOX IMVI 16.3 µM | M14 11.5 µM | Malme-3M 16.9 µM | NCI-H23 18.8 µM | OVCAR-4 3.21 µM | SF-295 5.2 µM | SK-MEL-28 21 µM | SK-MEL-5 18.9 µM | SN12C 12.5 µM | SR 4.58 µM | TK-10 1.63 µM | UO-31 18.5 µM
